Source: US20230085307A1, “PYRIDAZINONE COMPOUND AND HERBICIDE” (NISSAN CHEMICAL CORPORATION, priority 2019, published 2023)

Experiments:
southern crabgrass [1] = test: Test Example 5: herbicidal effect by foliage application, plastic box (Table 20, symbol F); assay type: in vivo, southern crabgrass (Digitaria ciliaris); details: 320 g/ha, foliage application after 14-day growth, evaluated three weeks after application
How it was run: (§1)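 Plants were sown into sterilized diluvial soil under about 1.5 cm cover and kept in a greenhouse at 25° C. to 30° C. Fourteen days on, foliage received an even spray of the diluted emulsion. Herbicidal or crop effect was judged three weeks afterwards.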

southern crabgrass [2] = test: Test Example 4: herbicidal effect by soil treatment (Table 19, symbol F); assay type: in vivo, southern crabgrass (Digitaria ciliaris); details: amount of applied herbicide 320 g/ha
How it was run: (§2)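 In this soil treatment, the formulated compound reached the seeds only through the soil: seeds were buried about 1.5 cm deep in sterilized diluvial soil, then the diluted emulsion was sprayed over the surface. After three weeks at 25° C. to 30° C. in a greenhouse, effects were graded on criteria from an earlier test.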

velvetleaf [3] = test: Test Example 4: herbicidal effect by soil treatment (Table 19, symbol M); assay type: in vivo, velvetleaf (Abutilon theophrasti); details: amount of applied herbicide 320 g/ha
How it was run: as §2

lambsquarters [4] = test: Test Example 4: herbicidal effect by soil treatment (Table 19, symbol O); assay type: in vivo, lambsquarters (Chenopodium album); details: amount of applied herbicide 320 g/ha
How it was run: as §2

blackgrass [5] = test: Test Example 4: herbicidal effect by soil treatment (Table 19, symbol J); assay type: in vivo, blackgrass (Alopecurus myosuroides); details: amount of applied herbicide 320 g/ha
How it was run: as §2

windgrass [6] = test: Test Example 4: herbicidal effect by soil treatment (Table 19, symbol L); assay type: in vivo, windgrass (Apera spica-venti); details: amount of applied herbicide 320 g/ha
How it was run: as §2

wild oat [7] = test: Test Example 5: herbicidal effect by foliage application, plastic box (Table 20, symbol I); assay type: in vivo, wild oat (Avena fatua); details: 320 g/ha, foliage application after 14-day growth, evaluated three weeks after application
How it was run: as §1

blackgrass [8] = test: Test Example 5: herbicidal effect by foliage application, plastic box (Table 20, symbol J); assay type: in vivo, blackgrass (Alopecurus myosuroides); details: 320 g/ha, foliage application after 14-day growth, evaluated three weeks after application
How it was run: as §1

redroot pigweed [9] = test: Test Example 5: herbicidal effect by foliage application, plastic box (Table 20, symbol N); assay type: in vivo, redroot pigweed (Amaranthus retroflexus); details: 320 g/ha, foliage application after 14-day growth, evaluated three weeks after application
How it was run: as §1

persian speedwell [10] = test: Test Example 4: herbicidal effect by soil treatment (Table 19, symbol R); assay type: in vivo, Persian speedwell (Veronica persica); details: amount of applied herbicide 320 g/ha
How it was run: as §2

barnyard grass [11] = test: Test Example 5: herbicidal effect by foliage application, plastic box (Table 20, symbol H); assay type: in vivo, barnyard grass (Echinochloa crus-galli); details: 320 g/ha, foliage application after 14-day growth, evaluated three weeks after application
How it was run: as §1

green foxtail [12] = test: Test Example 5: herbicidal effect by foliage application, plastic box (Table 20, symbol G); assay type: in vivo, green foxtail (Setaria viridis); details: 320 g/ha, foliage application after 14-day growth, evaluated three weeks after application
How it was run: as §1

Chinese sprangletop = test: Test Example 3: herbicidal effect by foliage application, Wagner pot (Table 18, symbol D); assay type: in vivo, chinese sprangletop (Leptochloa chinensis); details: 320 g/ha
How it was run: (§3)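 Plants were sown in alluvial soil held under 0.1–0.5 cm standing water and grown 14 days in a greenhouse at 25–30 °C. An emulsifiable formulation, water-diluted to the set dose, was then sprayed onto the foliage, and effects were scored three weeks later using previously defined criteria.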

chickweed [13] = test: Test Example 5: herbicidal effect by foliage application, plastic box (Table 20, symbol P); assay type: in vivo, common chickweed (Stellaria media); details: 320 g/ha, foliage application after 14-day growth, evaluated three weeks after application
How it was run: as §1

Italian ryegrass [14] = test: Test Example 5: herbicidal effect by foliage application, plastic box (Table 20, symbol K); assay type: in vivo, Italian ryegrass (Lolium multiflorum); details: 320 g/ha, foliage application after 14-day growth, evaluated three weeks after application
How it was run: as §1

green foxtail [15] = test: Test Example 4: herbicidal effect by soil treatment (Table 19, symbol G); assay type: in vivo, green foxtail (Setaria viridis); details: amount of applied herbicide 320 g/ha
How it was run: as §2

rice flat sedge = test: Test Example 3: herbicidal effect by foliage application, Wagner pot (Table 18, symbol E); assay type: in vivo, rice flat sedge (Cyperus iria); details: 320 g/ha
How it was run: as §3

velvetleaf [16] = test: Test Example 5: herbicidal effect by foliage application, plastic box (Table 20, symbol M); assay type: in vivo, velvetleaf (Abutilon theophrasti); details: 320 g/ha, foliage application after 14-day growth, evaluated three weeks after application
How it was run: as §1

barnyard grass [17] = test: Test Example 4: herbicidal effect by soil treatment (Table 19, symbol H); assay type: in vivo, barnyard grass (Echinochloa crus-galli); details: amount of applied herbicide 320 g/ha
How it was run: as §2

lambsquarters [18] = test: Test Example 5: herbicidal effect by foliage application, plastic box (Table 20, symbol O); assay type: in vivo, lambsquarters (Chenopodium album); details: 320 g/ha, foliage application after 14-day growth, evaluated three weeks after application
How it was run: as §1

redroot pigweed [19] = test: Test Example 4: herbicidal effect by soil treatment (Table 19, symbol N); assay type: in vivo, redroot pigweed (Amaranthus retroflexus); details: amount of applied herbicide 320 g/ha
How it was run: as §2

wild oat [20] = test: Test Example 4: herbicidal effect by soil treatment (Table 19, symbol I); assay type: in vivo, wild oat (Avena fatua); details: amount of applied herbicide 320 g/ha
How it was run: as §2

windgrass [21] = test: Test Example 5: herbicidal effect by foliage application, plastic box (Table 20, symbol L); assay type: in vivo, windgrass (Apera spica-venti); details: 320 g/ha, foliage application after 14-day growth, evaluated three weeks after application
How it was run: as §1

Italian ryegrass [22] = test: Test Example 4: herbicidal effect by soil treatment (Table 19, symbol K); assay type: in vivo, Italian ryegrass (Lolium multiflorum); details: amount of applied herbicide 320 g/ha
How it was run: as §2

barnyard grass [23] = test: Test Example 3: herbicidal effect by foliage application, Wagner pot (Table 18, symbol H); assay type: in vivo, barnyard grass (Echinochloa crus-galli); details: 320 g/ha
How it was run: as §3

persian speedwell [24] = test: Test Example 5: herbicidal effect by foliage application, plastic box (Table 20, symbol R); assay type: in vivo, Persian speedwell (Veronica persica); details: 320 g/ha, foliage application after 14-day growth, evaluated three weeks after application
How it was run: as §1

chickweed [25] = test: Test Example 4: herbicidal effect by soil treatment (Table 19, symbol P); assay type: in vivo, common chickweed (Stellaria media); details: amount of applied herbicide 320 g/ha
How it was run: as §2

SMILES | herbicidal effect on F: southern crabgrass (evaluation grade 0-5) (southern crabgrass [1]) | Herbicidal effect by soil treatment, F: southern crabgrass (southern crabgrass [2]) | Herbicidal effect by soil treatment, M: velvetleaf (velvetleaf [3]) | Herbicidal effect by soil treatment, O: lambsquarters (lambsquarters [4]) | Herbicidal effect by soil treatment, J: blackgrass (blackgrass [5]) | Herbicidal effect by soil treatment, L: windgrass (windgrass [6]) | herbicidal effect on I: wild oat (evaluation grade 0-5) (wild oat [7]) | herbicidal effect on J: blackgrass (evaluation grade 0-5) (blackgrass [8]) | herbicidal effect on N: redroot pigweed (evaluation grade 0-5) (redroot pigweed [9]) | Herbicidal effect by soil treatment, R: persian speedwell (persian speedwell [10]) | herbicidal effect on H: barnyard grass (evaluation grade 0-5) (barnyard grass [11]) | herbicidal effect on G: green foxtail (evaluation grade 0-5) (green foxtail [12]) | herbicidal effect on Chinese sprangletop (D) (Chinese sprangletop) | herbicidal effect on P: chickweed (evaluation grade 0-5) (chickweed [13]) | herbicidal effect on K: Italian ryegrass (evaluation grade 0-5) (Italian ryegrass [14]) | Herbicidal effect by soil treatment, G: green foxtail (green foxtail [15]) | herbicidal effect on rice flat sedge (E) (rice flat sedge) | herbicidal effect on M: velvetleaf (evaluation grade 0-5) (velvetleaf [16]) | Herbicidal effect by soil treatment, H: barnyard grass (barnyard grass [17]) | herbicidal effect on O: lambsquarters (evaluation grade 0-5) (lambsquarters [18]) | also measured
CCCC(=O)Oc1c(C)nn(C)c(=O)c1-c1c(-c2ccc(F)cc2OC)sc2c(F)cccc12 [4-012] | 2 (Herbicidal rate of 20% or more and less than 40%) | 0 (Herbicidal rate of 5% or less (almost no effect)) | 1 (Herbicidal rate of 5% or more and less than 20%) | 1 (Herbicidal rate of 5% or more and less than 20%) | 0 (Herbicidal rate of 5% or less (almost no effect)) | 0 (Herbicidal rate of 5% or less (almost no effect)) | 0 (Herbicidal rate of 5% or less (almost no effect)) | 0 (Herbicidal rate of 5% or less (almost no effect)) | 4 (Herbicidal rate of 70% or more and less than 90%) | 0 (Herbicidal rate of 5% or less (almost no effect)) | 3 (Herbicidal rate of 40% or more and less than 70%) | 5 (Herbicidal rate of 90% or more (almost completely withered)) | 3 (Herbicidal rate of 40% or more and less than 70%) | 5 (Herbicidal rate of 90% or more (almost completely withered)) | 3 (Herbicidal rate of 40% or more and less than 70%) | 0 (Herbicidal rate of 5% or less (almost no effect)) | 5 (Herbicidal rate of 90% or more (almost completely withered)) | 3 (Herbicidal rate of 40% or more and less than 70%) | 0 (Herbicidal rate of 5% or less (almost no effect)) | 2 (Herbicidal rate of 20% or more and less than 40%) | Herbicidal effect by soil treatment, N: redroot pigweed (redroot pigweed [19]): 3 (Herbicidal rate of 40% or more and less than 70%); Herbicidal effect by soil treatment, I: wild oat (wild oat [20]): 0 (Herbicidal rate of 5% or less (almost no effect)); herbicidal effect on L: windgrass (evaluation grade 0-5) (windgrass [21]): 1 (Herbicidal rate of 5% or more and less than 20%); Herbicidal effect by soil treatment, K: Italian ryegrass (Italian ryegrass [22]): 0 (Herbicidal rate of 5% or less (almost no effect)); herbicidal effect on barnyard grass (H) (barnyard grass [23]): 5 (Herbicidal rate of 90% or more (almost completely withered)); herbicidal effect on R: persian speedwell (evaluation grade 0-5) (persian speedwell [24]): 4 (Herbicidal rate of 70% or more and less than 90%); Herbicidal effect by soil treatment, P: chickweed (chickweed [25]): 0 (Herbicidal rate of 5% or less (almost no effect))
COc1ccccc1-c1sc2c(Cl)cccc2c1-c1c(O)c(C)nn(C)c1=O [4-021] | 1 (Herbicidal rate of 5% or more and less than 20%) | 0 (Herbicidal rate of 5% or less (almost no effect)) | 0 (Herbicidal rate of 5% or less (almost no effect)) | 1 (Herbicidal rate of 5% or more and less than 20%) | 0 (Herbicidal rate of 5% or less (almost no effect)) | 0 (Herbicidal rate of 5% or less (almost no effect)) | 0 (Herbicidal rate of 5% or less (almost no effect)) | 0 (Herbicidal rate of 5% or less (almost no effect)) | 1 (Herbicidal rate of 5% or more and less than 20%) | 3 (Herbicidal rate of 40% or more and less than 70%) | 3 (Herbicidal rate of 40% or more and less than 70%) | 4 (Herbicidal rate of 70% or more and less than 90%) | 4 (Herbicidal rate of 70% or more and less than 90%) | 5 (Herbicidal rate of 90% or more (almost completely withered)) | 5 (Herbicidal rate of 90% or more (almost completely withered)) | 0 (Herbicidal rate of 5% or less (almost no effect)) | 5 (Herbicidal rate of 90% or more (almost completely withered)) | 2 (Herbicidal rate of 20% or more and less than 40%) | 0 (Herbicidal rate of 5% or less (almost no effect)) | 2 (Herbicidal rate of 20% or more and less than 40%) | Herbicidal effect by soil treatment, N: redroot pigweed (redroot pigweed [19]): 2 (Herbicidal rate of 20% or more and less than 40%); Herbicidal effect by soil treatment, I: wild oat (wild oat [20]): 0 (Herbicidal rate of 5% or less (almost no effect)); herbicidal effect on L: windgrass (evaluation grade 0-5) (windgrass [21]): 5 (Herbicidal rate of 90% or more (almost completely withered)); Herbicidal effect by soil treatment, K: Italian ryegrass (Italian ryegrass [22]): 0 (Herbicidal rate of 5% or less (almost no effect)); herbicidal effect on barnyard grass (H) (barnyard grass [23]): 4 (Herbicidal rate of 70% or more and less than 90%); herbicidal effect on R: persian speedwell (evaluation grade 0-5) (persian speedwell [24]): 4 (Herbicidal rate of 70% or more and less than 90%); Herbicidal effect by soil treatment, P: chickweed (chickweed [25]): 4 (Herbicidal rate of 70% or more and less than 90%)
